Columns and labels:
BJ fibroblast cells = test: Cytokine screen in BJ fibroblast cells, human CCL-5/RANTES ELISA; type: cell-based; details: BJ fibroblasts, 500 ng modRNA, 18 h to 22 h
Method: At 2 or 3 days prior to transfection, 100,000 BJ fibroblast cells (ATCC no. CRL-2522; Manassas, Va.) were harvested by treatment with trypsin-EDTA solution (LifeTechnologies, Grand Island, N.Y.) and seeded in a total volume of 500 ul EMEM medium (supplemented with 10% FCS and 10% Glutamax, both LifeTechnologies, Grand Island, N.Y.) per well in 24-well cell culture plates (Corning, Manassas, Va.). The cells were grown at 37° C. in a 5% CO2 atmosphere overnight. On the next day, 500 ng modRNA, harboring chemical modifications on the bases or the ribose units, were diluted in 25 ul final volume of OPTI-MEM (LifeTechnologies, Grand Island, N.Y.). Lipofectamine 2000 (LifeTechnologies, Grand Island, N.Y.) was used as transfection reagent and 1.0 ul was diluted in 25 ul final volume of OPTI-MEM. After 5 min incubation at room temperature, both solutions were combined and incubated an additional 15 min at room temperature. The 50 ul were added to the 500 ul cell culture medium containing the BJ fibroblast cells. The plates were then incubated as described above.
After 18 h to 22 h incubation, cell culture supernatants were collected and centrifuged at 10,000 rcf for 2 min. The cleared supernatants were transferred and analyzed with a human IFN-beta ELISA (R&D Systems, Minneapolis, Minn.; Cat. #s 41410-2) and human CCL-5/RANTES ELISA (R&D Systems, Minneapolis, Minn.; Cat. #s SRN00B) according to the manufacturer instructions. All samples were diluted until the determined values were within the linear range of the ELISA standard curves using a BioTek Synergy H1 plate reader (BioTek, Winooski, Vt.).

HeLa cells = test: Transfection in HeLa cells, human EPO modRNA (EPO ELISA of supernatant); type: cell-based; details: Table 22, 18 h to 22 h
Method: The day before transfection, 20.000 HeLa cells (ATCC no. CCL-2; Manassas, Va.) were harvested by treatment with Trypsin-EDTA solution (LifeTechnologies, Grand Island, N.Y.) and seeded in a total volume of 100 ul EMEM medium (supplemented with 10% FCS and 1× Glutamax) per well in a 96-well cell culture plate (Corning, Manassas, Va.). The cells were grown at 37° C. in 5% CO2 atmosphere overnight. Next day, 83 ng of Luciferase modRNA or 250 ng of human GCSF modRNA, harboring chemical modifications on the bases or the ribose units, were diluted in 10 ul final volume of OPTI-MEM (LifeTechnologies, Grand Island, N.Y.). Lipofectamine 2000 (LifeTechnologies, Grand Island, N.Y.) was used as transfection reagent and 0.2 μl were diluted in 10 ul final volume of OPTI-MEM. After 5 min incubation at room temperature, both solutions were combined and incubated additional 15 min at room temperature. Then the 20 μl were added to the 100 ul cell culture medium containing the HeLa cells. The plates were then incubated as described before.
After 18 h to 22 h incubation, cell culture supernatants of cells expressing human GCSF or human EPO were collected and centrifuged at 10.000 rcf for 2 min. The cleared supernatants were transferred and analyzed with a human GCSF-specific or EPO ELISA kit (both from R&D Systems, Minneapolis, Minn.; Cat. #s SCS50, DEP00, respectively) according to the manufacturer instructions. All samples were diluted until the determined values were within the linear range of the human GCSF or EPO ELISA standard curve.

T7 RNA polymerase = T7 RNA polymerase (Escherichia phage T7, UniProt P00573); test: In vitro transcription yields of modified mRNA; type: biochemical; details: for EPO In Vitro Transcription yield: EPO mRNA made with the modified NTP(s); for GCSF In Vitro Transcription yield: GCSF mRNA made with the modified NTP(s); for Luc In Vitro Transcription yield: Luciferase mRNA made with the modified NTP(s)
Method: The in vitro transcription reaction generates mRNA containing modified nucleotides or modified RNA. The input nucleotide triphosphate (NTP) mix is made in-house using natural and unnatural NTPs.
A typical in vitro transcription reaction includes the following:
Incubation at 37° C. for 3 hr-5 hrs.
The crude IVT mix may be stored at 4° C. overnight for cleanup the next day. 1 U of RNase-free DNase is then used to digest the original template. After 15 minutes of incubation at 37° C., the mRNA is purified using Ambion's […]™ Kit (Austin, Tex.) following the manufacturer's instructions. This kit can purify up to 500 μg of RNA. Following the cleanup, the RNA is quantified using the NanoDrop and analyzed by agarose gel electrophoresis to confirm the RNA is the proper size and that no degradation of the RNA has occurred.
Modified mRNAs in TE buffer (1 μl) are used for Nanodrop UV absorbance readings to quantitate the yield of each modified mRNA from an in vitro transcription reaction (UV absorbance traces are not shown).

human PBMC = test: PBMC cytokine assay, interferon-alpha production (IFN-alpha multi-subtype ELISA); type: cell-based
Method: 50 mL of human blood from three donors was received from Research Blood Components (Brighton, Mass.) in sodium heparin tubes. […] The tubes were centrifuged at 2000 rpm for 30 minutes with low acceleration and braking (Thermo, Waltham, Mass., 75004506). The tubes were removed and the buffy coat PBMC layers were gently transferred to a fresh 50 mL conical and washed with DPBS. The tubes were centrifuged at 1450 rpm for 10 minutes. The supernatant was aspirated and the PBMC pellets were resuspended and washed in 50 mL of DPBS. The tubes were centrifuged at 1450 rpm for 10 minutes. […] The cell suspensions were adjusted to a concentration of 3.0×10^6 cells/mL live cells. […] Within 30 minutes, transfection mixtures were added to each well at a volume of 50 μL per well. […] The transfection mixtures were then transferred to each of the human PBMC plates at 50 μL per well (6 wells per mRNA sample). The plates were then incubated at 37° C. […] In order to harvest the supernatant, plates were centrifuged at 1450 rpm for 5 min in a swinging plate rotor. The supernatant of 6 wells transfected with the same mRNA was carefully harvested and pooled in a single well of a fresh 96-well plate. Supernatants were either frozen or used fresh until ELISA analysis was done. The ability of unmodified and modified mRNA to trigger innate immune recognition as measured by interferon-alpha production.

Chain of T7 RNA polymerase (P00573 whole entry): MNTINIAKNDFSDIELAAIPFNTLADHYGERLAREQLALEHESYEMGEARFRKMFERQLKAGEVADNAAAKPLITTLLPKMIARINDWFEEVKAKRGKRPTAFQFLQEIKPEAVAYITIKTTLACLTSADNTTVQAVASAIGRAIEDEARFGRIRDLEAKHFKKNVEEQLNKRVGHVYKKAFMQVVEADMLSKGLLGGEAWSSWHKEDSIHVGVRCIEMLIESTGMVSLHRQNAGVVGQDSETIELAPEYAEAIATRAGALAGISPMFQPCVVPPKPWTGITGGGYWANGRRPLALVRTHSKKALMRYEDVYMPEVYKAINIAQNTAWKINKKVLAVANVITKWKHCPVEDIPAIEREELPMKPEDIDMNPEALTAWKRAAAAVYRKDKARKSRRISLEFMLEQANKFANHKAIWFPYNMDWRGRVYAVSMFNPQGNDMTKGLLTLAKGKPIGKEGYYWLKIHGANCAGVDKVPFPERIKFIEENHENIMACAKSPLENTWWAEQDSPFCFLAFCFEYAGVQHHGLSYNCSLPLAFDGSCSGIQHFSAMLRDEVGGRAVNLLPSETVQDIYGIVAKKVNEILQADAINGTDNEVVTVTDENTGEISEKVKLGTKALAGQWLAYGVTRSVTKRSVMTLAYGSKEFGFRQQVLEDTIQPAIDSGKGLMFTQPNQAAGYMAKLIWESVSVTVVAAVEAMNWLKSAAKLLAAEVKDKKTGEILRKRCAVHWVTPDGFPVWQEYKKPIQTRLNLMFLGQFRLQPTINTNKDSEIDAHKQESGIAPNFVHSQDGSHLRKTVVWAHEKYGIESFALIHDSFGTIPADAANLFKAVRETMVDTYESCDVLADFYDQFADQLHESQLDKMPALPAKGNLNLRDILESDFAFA

Row | Compound | Luc mRNA RANTES (BJ fibroblast cells) [pg/mL] | hEpo mRNA RANTES (BJ fibroblast cells) [pg/mL] | hGCSF mRNA RANTES (BJ fibroblast cells) [pg/mL] | EPO In Vitro Transcription yield (T7 RNA polymerase) [mg] | GCSF In Vitro Transcription yield (T7 RNA polymerase) [mg] | Luc In Vitro Transcription yield (T7 RNA polymerase) [mg] | further results
1 | 1-methyl-pseudouridine TP, ATP, GTP, CTP | 5473 | 8780 | 4816 | – | – | – | –
2 | 2-thio-pseudouridine TP, ATP, GTP, CTP | 1706 | 5440 | 2106 | – | – | – | –
3 | 5-bromocytidine TP, ATP, GTP, UTP | 1380 | 1343 | 1900 | – | – | – | –
4 | 5-hydroxymethyl-cytidine TP, ATP, GTP, UTP | 9826 | 2160 | 9063 | – | – | – | –
5 | 5-methoxy-uridine TP, ATP, GTP, UTP | 33.33 | -6.66 | -6.66 | – | – | – | –
6 | 5-trifluromethylcytidine TP, ATP, GTP, UTP | 2303 | 7593 | 4203 | – | – | – | –
7 | COC(=O)Cc1cn([C@@H]2O[C@H](COP(=O)(O)OP(=O)(O)OP(=O)(O)O)C(O)C2O)c(=O)[nH]c1=O (stereo in doubt) [00901013005 (358), 5-Methoxy carbonyl methyl-UTP] | – | – | – | 0.6432 | 0.6475 | 0.8825 | Epo Expression (HeLa cells): 8333 pg/mL
8 | CNc1ccn([C@@H]2O[C@H](COP(=O)(O)OP(=O)(O)OP(=O)(O)O)C(O)C2O)c(=O)n1 (stereo in doubt) [00901014004 (346), N4-methyl CTP] | – | – | – | 1.154 | 0.9028 | 1.124 | Epo Expression (HeLa cells): 90280 pg/mL
9 | Nc1ncnc2c1nnn2[C@@H]1O[C@H](COP(=O)(O)OP(=O)(O)OP(=O)(O)O)C(O)C1O (some centres unmarked) [00901011003 (377), 8-Aza-ATP] | – | – | – | 0.0055 | 0.03 | 0.0262 | –
10 | O=c1[nH]c(=O)n([C@@H]2O[C@H](COP(=O)(O)OP(=O)(O)OP(=O)(O)O)C(O)C2O)cc1C(F)(F)F (some centres unmarked) [00901013002 (352), 5-Trifluoromethyl-UTP] | – | – | – | 0.3830 | 0.5102 | 0.3662 | –
11 | CNCc1cn([C@@H]2O[C@H](COP(=O)(O)OP(=O)(O)OP(=O)(O)O)C(O)C2O)c(=O)[nH]c1=O (some centres unmarked) [00901013006 (353), 5-Methylamino methyl-UTP] | – | – | – | 0.3060 | 0.3494 | 0.2914 | –
12 | O=c1[nH]c(=S)ccn1[C@@H]1O[C@H](COP(=O)(O)OP(=O)(O)OP(=O)(O)O)C(O)C1O (some centres unmarked) [00901013011 (2), 4-Thio-UTP] | – | – | – | 0.0416 | 0.0759 | 0.1625 | –
13 | Cn1c(=O)[nH]cc([C@@H]2O[C@H](COP(=O)(O)OP(=O)(O)OP(=O)(O)O)C(O)C2O)c1=O (some centres unmarked) [00901015187 (236), 3-Methyl-pseudo-UTP] | – | – | – | 0.0125 | 0.0120 | 0.0152 | –
14 | Nc1nc(=O)n([C@@H]2O[C@H](COP(=O)(O)OP(=O)(O)OP(=O)(O)O)C(O)C2O)cc1C(F)(F)F (some centres unmarked) [00901016002 (351), 5-Trifluoromethyl-CTP] | – | – | – | – | – | – | interferon-alpha concentration in PBMC supernatant (human PBMC; Luc mRNA, 1st value in cell): 6670 pg/mL; interferon-alpha concentration in PBMC supernatant (human PBMC; Luc mRNA, 2nd value in cell): 2190 pg/mL; interferon-alpha concentration in PBMC supernatant (human PBMC; Luc mRNA, 3rd value in cell): 6410 pg/mL; interferon-alpha concentration in PBMC supernatant (human PBMC; hEPO mRNA, 1st value in cell): 4440 pg/mL; interferon-alpha concentration in PBMC supernatant (human PBMC; hEPO mRNA, 2nd value in cell): 3100 pg/mL; interferon-alpha concentration in PBMC supernatant (human PBMC; hEPO mRNA, 3rd value in cell): 1412.5 pg/mL; interferon-alpha concentration in PBMC supernatant (human PBMC; hGCSF mRNA, 1st value in cell): 6253.33 pg/mL; interferon-alpha concentration in PBMC supernatant (human PBMC; hGCSF mRNA, 2nd value in cell): 6725 pg/mL; interferon-alpha concentration in PBMC supernatant (human PBMC; hGCSF mRNA, 3rd value in cell): 6280 pg/mL
15 | Nc1nc(N)c2ncn([C@@H]3O[C@H](COP(=O)(O)OP(=O)(O)OP(=O)(O)O)C(O)C3O)c2n1 (some centres unmarked) [03601011002 (154), 2-Amino-ATP] | – | – | – | 0.2612 | 0.1567 | 0.1215 | –
16 | O=c1[nH]c(=O)n(CC(F)(F)F)cc1[C@@H]1O[C@H](COP(=O)(O)OP(=O)(O)OP(=O)(O)O)C(O)C1O (some centres unmarked) [03601015005 (175), 1-(2,2,2-Trifluoroethyl) pseudo-UTP] | – | – | – | 0.3379 | 0.2332 | 0.4388 | –
17 | Cn1c(N)nc2c(ncn2[C@@H]2O[C@H](COP(=O)(O)OP(=O)(O)OP(=O)(O)O)C(O)C2O)c1=O (some centres unmarked) [Compound 00901012008, N1-Me-GTP] | – | – | – | 0.0032 | 0.0050 | 0.0059 | –
18 | Cn1c(=N)ccn([C@@H]2O[C@H](COP(=O)(O)OP(=O)(O)OP(=O)(O)O)C(O)C2O)c1=O (some centres unmarked) [Compound 00901014006, 3-Methyl-CTP] | – | – | – | 0.0060 | 0.0141 | 0.0068 | –
19 | Nc1ccn([C@@H]2O[C@H](COP(=O)(O)OP(=O)(O)OP(=O)(O)O)C(O)C2O)c(=S)n1 (some centres unmarked) [Compound 00901014010, 2-Thio-CTP] | – | – | – | 0.0061 | 0.0076 | 0.0073 | –
20 | N4-acetyl-cytidine TP, ATP, GTP, UTP | 2546 | 4360 | 4103 | – | – | – | –
21 | pseudouridine TP, ATP, GTP, CTP | 4600 | 5490 | 5016 | – | – | – | –

Source: patent US20160304552A1, “MODIFIED NUCLEIC ACID MOLECULES AND USES THEREOF” (MODERNA THERAPEUTICS, INC., priority 2013, published 2016)
